Patent US11746116B2, “Antibiotic resistance breakers” (KING'S COLLEGE LONDON, priority 2017, dated 2023)
Converted amounts (≈) assume the structure as drawn. Structures can show the parent of a compound that is named as a salt. Where two headings read alike, the source gives them in different places.

Assays:
Experiment in all cases: MIC, microdilution broth method
KP13368 = assay type: cell-based; conditions: for MIC, KP13368: ESKAPE panel, Gram-negative
EC12923 = assay type: cell-based; conditions: for MIC, EC12923: ESKAPE panel, Gram-negative
EMRSA15 = assay type: cell-based, Staphylococcus aureus; conditions: for MIC, EMRSA15: ESKAPE panel, Gram-positive
Ab17978 = assay type: cell-based; conditions: for MIC, Ab17978: ESKAPE panel, Gram-negative
PA01 = assay type: cell-based, Pseudomonas aeruginosa; conditions: in µg/mL; for MIC, PA01: ESKAPE panel, Gram-negative; for MIC: PA01, Normal (no PMBN)
VSE775 = assay type: cell-based, Enterococcus faecalis; design: MIC, VSE775: unit not given beside the values; conditions: for MIC, VSE775: ESKAPE panel, Gram-positive
VRE12204 = assay type: cell-based, Enterococcus faecium; conditions: in µg/mL; for MIC, VRE12204: ESKAPE panel, Gram-positive; for MIC: VRE12204
MSSA9144 = assay type: cell-based, Staphylococcus aureus; conditions: for MIC, MSSA9144: ESKAPE panel, Gram-positive
M6 = assay type: cell-based; conditions: for MIC, M6: ESKAPE panel, Gram-negative
EMRSA16 = assay type: cell-based, Staphylococcus aureus; conditions: for MIC, EMRSA16: ESKAPE panel, Gram-positive
VRE12201 = assay type: cell-based, Enterococcus faecalis; conditions: for MIC, VRE12201: ESKAPE panel, Gram-positive
[1] = KP13368, Normal (no PMBN), in µg/mL
[2] = Ab17978, Normal (no PMBN), in µg/mL

Row | SMILES | MIC, KP13368 (KP13368) [µg/mL] | MIC, EC12923 (EC12923; in µg/mL) | MIC, EMRSA15 (EMRSA15; in µg/mL) | MIC, Ab17978 (Ab17978; in µg/mL) | MIC, VSE775 (VSE775) | MIC, VRE12204 (VRE12204) | MIC, MSSA9144 (MSSA9144; in µg/mL) | MIC, M6 (M6; in µg/mL) | MIC, EMRSA16 (EMRSA16; in µg/mL) | MIC, VRE12201 (VRE12201; in µg/mL) | MIC (KP13368; [1]) | MIC (EC12923; EC12923, in µg/mL) | MIC (EMRSA15; EMRSA15, in µg/mL) | MIC (Ab17978; [2]) | MIC (VSE775; VSE775, in µg/mL) | MIC (VRE12204) | MIC (MSSA9144; MSSA9144, in µg/mL) | MIC (M6; M6, Normal (no PMBN), in µg/mL) | MIC (EMRSA16; EMRSA16, in µg/mL) | MIC (VRE12201; VRE12201, in µg/mL) | other results
1 | C[C@H]1COc2c(N3CCC(N4CCN(C)CC4)C3)c(F)cc3c(=O)c(C(=O)O)cn1c23 (stereo partly drawn) [KSN-L31, (3S)-9-fluoro-3-methyl-10-(3-(4-methylpiperazin-1-yl)pyrrolidin-1-yl)-7-oxo-2,3-dihydro-7H-[1,4]oxazino[2,3,4-ij]quinoline-6-carboxylic acid] | 64 (≈ 149 µM) | 2 | 64 | 4 | 4 | 8 | 0.5-1 | 4 | 64 | 2 | – | – | – | – | – | – | – | – | – | – | MIC, PA01 (PA01): 64
2 | COC(=O)c1cnc(N2CCN(c3c(F)cc4c(=O)c(C(=O)O)cn5c4c3OC[C@@H]5C)CC2)nc1 [Compound 82-KSN-L8] | – | – | – | – | – | – | – | – | – | – | 32 | 4 | 8 | 2 | 4 | 4 | ≤0.12 | 4 | 16 | 2 | MIC (PA01): 32
3 | Cc1cc(N2CCN(c3c(F)cc4c(=O)c(C(=O)O)cn5c4c3OC[C@@H]5C)CC2)nc(C(C)C)n1 [ML-83-012, hydrochloride] | – | – | – | – | – | – | 0.25 | – | – | – | – | – | – | – | – | – | – | – | – | – | MIC (KP13368; Klebsiella pneumoniae (KP13368), Gram-Negative): 64 µg/mL; MIC, EC12923 (EC12923; hydrochloride, in µg/mL): 4; MIC, Ab17978 (Ab17978; hydrochloride, in µg/mL): 8; MIC, PA01 (PA01; hydrochloride): 32; MIC (VSE775; Enterococcus (VRE775), Gram-Positive): 0 to 5 µg/mL; MIC (MSSA9144; Staphylococcus aureus (MSSA9144), Gram-Positive): 0.25 µg/mL; MIC, M6 (M6; hydrochloride, in µg/mL): 16; MIC (EMRSA16; Staphylococcus aureus (EMRSA16), Gram-Positive (Table 14), hydrochloride): 2 µg/mL
4 | Cc1cc(N2CCN(c3c(F)cc4c(=O)c(C(=O)O)cn5c4c3OC[C@@H]5C)CC2)nc(C(C)C)n1 [ML-83-011, (S)-9-fluoro-10-(4-(2-isopropyl-6-methylpyrimidin-4-yl)piperazin-1-yl)-3-methyl-7-oxo-2,3-dihydro-7H-[1,4]oxazino[2,3,4-ij]quinoline-6-carboxylic acid] | 64 (≈ 133 µM) | 1-8 | 16 | 16 | 1 | 8 | – | 16-64 | 16 | 0.5-1 | 64 | 1-8 | 16 | 16 | 1 | 8 | 0.25 | 16-64 | 16 | – | MIC (KP13368; Klebsiella pneumoniae (KP13368), Gram-Negative, read-out: MIC): 64 µg/mL (≈ 133 µM); MIC (EC12923; Escherichia coli (EC12923), Gram-Negative, read-out: MIC): 1 to 8 µg/mL (≈ 2.08 to 16.6 µM); MIC (EMRSA15; Staphylococcus aureus, Staphylococcus aureus (EMRSA15), Gram-Positive (Table 14), read-out: MIC): 16 µg/mL (≈ 33.2 µM); MIC (Ab17978; Acinetobacter baumannii (AB17978), Gram-Negative, read-out: MIC): 16 µg/mL (≈ 33.2 µM); MIC (VSE775; Enterococcus faecalis, Enterococcus (VRE775), Gram-Positive, read-out: MIC): 1 µg/mL (≈ 2.08 µM); MIC (MSSA9144; Staphylococcus aureus (MSSA9144), Gram-Positive, read-out: MIC): 0.25 µg/mL (≈ 0.519 µM); MIC (M6; Klebsiella pneumoniae (M6), Gram-Negative, read-out: MIC): 16 to 64 µg/mL (≈ 33.2 to 133 µM); MIC (EMRSA16; Staphylococcus aureus (EMRSA16), Gram-Positive (Table 14), read-out: MIC): 16 µg/mL (≈ 33.2 µM); MIC (VRE12201; Enterococcus faecalis, Enterococcus (VRE12201), Gram-Positive, read-out: MIC): 0.5 to 1 µg/mL (≈ 1.04 to 2.08 µM)
5 | CCn1cc(C(=O)O)c(=O)c2cc(F)c(N3CCN(Cc4cccc(COC)c4)CC3)cc21 [ML-83-037, 1-ethyl-6-fluoro-7-(4-(3-(methoxymethyl)benzyl)piperazin-1-yl)-4-oxo-1,4-dihydroquinoline-3-carboxylic acid] | – | – | – | – | – | – | – | – | – | – | 64-128 | 16 | 64-128 | 8 | 16 | 16 | 1 | 32 | 64 | 8 | –
6 | C[C@H]1COc2c(N3CCC(n4cccn4)CC3)c(F)cc3c(=O)c(C(=O)O)cn1c23 [ML-83-041, (S)-10-(4-(1H-pyrazol-1-yl)piperidin-1-yl)-9-fluoro-3-methyl-7-oxo-2,3-dihydro-7H-[1,4]oxazino[2,3,4-ij]quinoline-6-carboxylic acid] | – | – | – | – | – | – | – | – | – | – | 32 | 2 | – | 4-8 | 8 | 16 | 2 | 4 | – | 8 | MIC (PA01): 64
